Measurements: PMC8227119, “Urinary Elimination of Ecdysterone and Its Metabolites Following a Single-Dose Administration in Humans” (Metabolites, 2021)
Like-named read-outs stand apart in the source and are kept apart here.

What was measured:
[1] = Urinary excretion and pharmacokinetics after a single oral dose of 50 mg of pure ecdysterone (LC-MS/MS of urine); type: in vivo, human; conditions: for Subjects in whose post-administration urine the analyte was detected: 12 subjects; for Cmax / half-life / Tmax: both sexes; for Cmax / half-life: human, po, 50 mg; for Tmax: read-out: Tmax (time to maximum urinary concentration); for Cumulative urinary excretion percentage relative to dose, mean / Cumulative urinary excretion percentage relative to dose, range over subjects: percent of the 50 mg dose; for Cumulative urinary excretion percentage relative to dose, mean: mean value; for Cumulative Du (cumulative amount excreted in urine): mean ± SD of 12 subjects (14-deoxy-poststerone n = 10); for Difference of cumulative urinary excretion percentage between male and female (T-test): p ≤ 0.05, 5 males, 7 females; for Kinetics of urinary elimination: log-linear rate of excretion versus middle-point time
Procedure: The study was approved by the ethical committee of the German Sport University Cologne, and was carried out following the regulations of the Helsinki declaration. Twelve healthy subjects (7 females and 5 males) with a mean age (standard deviation [SD]) of 26 (3.1) y, weight of 74 (12.0) kg, and height of 174 (8.3) cm participated in the study. A single-dose of 50 mg of pure ecdysterone dissolved in 50 cl of alcoholic solution was administered to the subjects. All doses were administered at 9.00 a.m. in the morning. The urine samples were collected one day before (blank samples) and five days after the administration of ecdysterone. Sampling time (h) and urine volume (mL) were recorded. Aliquots of urine samples were stored frozen at −18 °C, until analysis.
Urine samples (200 µL) spiked with 10 µL of the ISTD ponasterone (working solution 10 µg/mL) and diluted to 1 mL with methanol:water (10:90, v/v). The tubes were vortex-mixed and then centrifuged at 9677 RCF for 8 min.
The analysis of ecdysterone and its metabolite in calibration and urine samples was performed by LC–MS/MS on an Agilent 1200 Infinity series, coupled to an Ultivo triple quadrupole tandem MS system, utilizing a Jet Stream electrospray ionization (ESI) source and an Ion Funnel (Agilent Technologies GmbH, Waldronn, Germany).
In this study, the excretion profile, the cumulative amount excreted in urine, and the half-life of ecdysterone and its metabolites, after a single-dose administration of 50 mg of pure ecdysterone were evaluated according to [45].
To obtain the excretion rates, Equation (1) was applied:(1) Erate,i=Ci x Vi/ (ti−ti−1)
For each urine sample, the calculated concentration (Ci, ng/mL) of ecdysterone, 14-deoxy-ecdysterone, and 14-deoxy-poststerone was adjusted as a function of the dilution factor applied (1:5) and of the volume of urine collected (Vi, mL), obtaining the corresponding amount of drug in urine (expressed in ng), which was divided by the interval between the time values of the sampling and the previous sampling (ti − ti−1).
The excretion profile curves of ecdysterone and its metabolites for each subject were then obtained by plotting the calculated rate of excretion values (ng/h) versus time (middle-point of sample collection, hours) or simply the calculated concentrations (ng/mL) versus time (sampling time, hours). The first collected interval started at 0 h after the oral administration of ecdysterone at 9 a.m.
For each sample, the amount of drug excreted in urine was calculated and added to the amount of drug recovered in the previous urine sample to obtain the cumulative urinary drug excretion, which was plotted in a graph versus the sampling time (hours).
The half-life using the elimination rate constant (k) was calculated by applying Equation (2):(2) t1/2=ln(2)/k
Two different methods were used to calculate the elimination rate constant (k). In the rate of excretion method, k was obtained from the slope of the elimination phase of the ln-transformed excretion curve (Figure 6).
In the sigma minus method, k was obtained from the slope of the elimination phase of the ln-transformed remaining drug to be excreted.

[2] = Stability of analytes in spiked urine QC samples (bench-top, long term, freeze-thaw); type: in vitro ADME, human; conditions: vs t = 0, mean n = 3
Procedure: The stability of ecdysterone and 14-deoxy-ecdysterone in urine was determined in triplicates, using the LQC and HQC samples, which were analyzed immediately and again after storage, as reported in Table 4. Freshly prepared QC samples (at t = 0) were used as baseline to assess the stability.
To evaluate the bench-top stability, LQC and HQC samples were left at room temperature for 4, 8, and 24 h, before analysis. Freeze and thaw stability was evaluated after three cycles for LQC and HQC. Long-term stability was evaluated analyzing the LQC and HQC samples, after storing them at −20 °C for two weeks. The results of the stability tests applied were calculated using the peak area ratio of the analytes to the ISTD, which were compared to the baseline (t = 0). Comparing the mean of the ratios after a specific storage condition to the mean of the ratio at t = 0. The results obtained were all within the ±15%.

[3] = single oral dose 50 mg ecdysterone
[4] = human urine, single oral dose 50 mg ecdysterone, mean ± SD of 12 subjects (14-deoxy-poststerone n = 5)
[5] = human urine, range over subjects
[6] = human urine, single oral dose 50 mg ecdysterone
[7] = human urine, single oral dose 50 mg ecdysterone, range over subjects

CC(=O)[C@H]1CC[C@H]2C3=CC(=O)[C@@H]4C[C@@H](O)[C@@H](O)C[C@]4(C)[C@H]3CC[C@]12C [14-deoxy-poststerone, alpha-14-deoxy-poststerone]
Subjects in whose post-administration urine the analyte was detected [1, 3]: 10 out of 12
Cmax ([1]; urine, human urine, single oral dose 50 mg ecdysterone, mean ± SD of 12 subjects (14-deoxy-poststerone n = 5), read-out: Cmax (maximum urinary concentration)): 800 ± 700 ng/mL
half-life ([1]; urine, human urine, single oral dose 50 mg ecdysterone, mean ± SD of 12 subjects (14-deoxy-poststerone n = 5), read-out: Half Life, Rate of Excretion method (converted)): 9.7 ± 9.5 h
half-life ([1]; urine, human urine, single oral dose 50 mg ecdysterone, mean ± SD of 12 subjects (14-deoxy-poststerone n = 5), read-out: Half Life, Sigma-Minus method (converted)): 4.4 ± 1 h
Cmax ([1]; urine, human urine, single oral dose 50 mg ecdysterone, range over subjects, read-out: Maximum urinary concentration (Cmax), range over subjects): 100 to 1500 ng/mL
Tmax [1, 4]: 30.1 ± 7.2 h
Cumulative urinary excretion percentage relative to dose, mean ([1]; human urine): 1.5%
Cumulative urinary excretion percentage relative to dose, range over subjects [1, 5]: 0.01–4.9%
Duration of detectability in urine [1, 6]: about 4 days
First detection in urine after administration (start of detection window) [1, 6]: 8.50 h
Remained detectable in urine until (end of detection window) [1, 6]: 97 h
ERmax (maximum urinary rate of excretion) [1, 4]: 0.1 ± 0.1 mg/h
Midpoint Timemax (maximum urinary middle-point time) [1, 4]: 27.8 ± 3.7 h
Cumulative Du (cumulative amount excreted in urine) [1, 6]: 0.7 ± 1.1 mg
Time of the urine with maximum concentration, range over subjects [1, 7]: 23.3 to 41.3 h
Difference of cumulative urinary excretion percentage between male and female (T-test) [1]: significant difference

CC(C)(O)CC[C@@H](O)[C@](C)(O)[C@H]1CC[C@@]2(O)C3=CC(=O)[C@@H]4C[C@@H](O)[C@@H](O)C[C@]4(C)[C@H]3CC[C@]12C [Ecdysterone, 2β,3β,14α,20β,22R,25-hexahydroxy-5β-cholest-7-en-6-one]
Subjects in whose post-administration urine the analyte was detected [1, 3]: all subjects
Cmax ([1]; in vivo, human urine, single oral dose 50 mg ecdysterone, mean ± SD of 12 subjects (14-deoxy-poststerone n = 5), read-out: Cmax (maximum urinary concentration)): 12100 ± 9200 ng/mL
half-life ([1]; in vivo, human urine, single oral dose 50 mg ecdysterone, mean ± SD of 12 subjects (14-deoxy-poststerone n = 5), read-out: Half Life, Rate of Excretion method (converted)): 3.4 ± 1 h
half-life ([1]; in vivo, human urine, single oral dose 50 mg ecdysterone, mean ± SD of 12 subjects (14-deoxy-poststerone n = 5), read-out: Half Life, Sigma-Minus method (converted)): 3 ± 1 h
Cmax ([1]; in vivo, human urine, single oral dose 50 mg ecdysterone, range over subjects, read-out: Maximum urinary concentration (Cmax), range over subjects): 4400 to 30000 ng/mL
half-life ([1]; in vivo, human urine, single oral dose 50 mg ecdysterone, read-out: Urinary half-life (approximate) (converted)): ~3 h
Tmax ([1]; in vivo, human urine, single oral dose 50 mg ecdysterone, mean ± SD of 12 subjects (14-deoxy-poststerone n = 5)): 4.6 ± 1.8 h
Cumulative urinary excretion percentage relative to dose, mean ([1]; human urine): 18%
Cumulative urinary excretion percentage relative to dose, range over subjects [1, 5]: 2.8–47.2%
Time at which cumulative urinary excretion reaches a plateau ([1]; human urine, post-dosage): 12 h
Duration of detectability in urine [1, 6]: more than 2 days
First detection in urine after administration [1, 6]: 45 min
Remained detectable in urine until (end of detection window) [1, 6]: 58 h
Urinary half-life (approximate) [1, 6]: three
ERmax (maximum urinary rate of excretion) [1, 4]: 1.7 ± 1.4 mg/h
Midpoint Timemax (maximum urinary middle-point time) [1, 4]: 2.1 ± 1.3 h
Cumulative Du (cumulative amount excreted in urine) [1, 6]: 8.8 ± 6.6 mg
Maximum excretion rate, range over subjects [1, 7]: 0.1 to 4.8 mg/h
Time of the urine with maximum concentration, range over subjects [1, 7]: 2.8 to 8.5 h
Time of the urine with maximum excretion rate, range over subjects [1, 7]: 0.4 to 4.4 h
Kinetics of urinary elimination [1]: first-order kinetics
Kinetics of urinary elimination ([1]; listed as ecdysterone): first-order
Difference of cumulative urinary excretion percentage between male and female (T-test) [1]: No significant difference
Stability% ([2]; HQC, bench-top room temperature 4 h): 101%
Stability% ([2]; HQC, bench-top room temperature 8 h): 98%
Stability% ([2]; HQC, bench-top room temperature 24 h): 100%
Stability% ([2]; HQC, freeze-thaw 3 cycles): 103%
Stability% ([2]; HQC, long term 2 weeks at −20 °C): 87%
Stability% ([2]; LQC, bench-top room temperature 4 h): 100%
Stability% ([2]; LQC, bench-top room temperature 8 h): 104%
Stability% ([2]; LQC, bench-top room temperature 24 h): 100%
Stability% ([2]; LQC, freeze-thaw 3 cycles): 111%
Stability% ([2]; LQC, long term 2 weeks at −20 °C): 94%
